The results in this text go back to patent US10774064B2 (Cadent Therapeutics, Inc., priority 2016, dated 2020).

This assay addresses T1, small-conductance Ca2+-activated K+ channels (SK channels, subtype 2) (Homo sapiens, UniProt Q9H2S1).
T1 construct: expressed in transfected cells; host or cells: HEK293
In words: whole-cell patch-clamp of ionic current through SK2 channels in HEK293 cells (SC100). The assay is classed as cell-based. The note with it: whole-cell patch-clamp, HEK293 cells expressing SK2 channels; concentration that increases the basal current by 100%. In outline:
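Whole-cell patch-clamp recording of current in HEK293 cells expressing SK2 channels. SC100 is the compound concentration that increases basal current by 100%.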
(In general: Patch clamp records ionic current or voltage across a cell membrane.)

In the case of `Cc1ccn(-c2nc(NC3CCC(F)(F)CC3)cc(N3CCS(=O)(=O)CC3)n2)n1` [NSSy6111], the “SC100 (μM)” value is on record as “++ (++ means 200 nM-1000 nM)”.
Next, `COC[C@H]1CN(c2cc(NC3CCCCC3)nc(-c3nc(C)cs3)n2)CCO1` [NSSy6115]: “++ (++ means 200 nM-1000 nM)”; `Cc1csc(-c2nc(NC3CCC(F)(F)CC3)cc(N3CC4CC3CO4)n2)n1` (centres unmarked) [NSSy6116]: “++ (++ means 200 nM-1000 nM)”; `COC[C@@H]1CN(c2cc(NC3CCCCC3)nc(-c3nc(C)cs3)n2)CCO1` [NSSy6124]: “++ (++ means 200 nM-1000 nM)”.
With `Cc1nsc(-c2nc(NC3CCC(F)(F)CC3)cc(N3CCS(=O)(=O)CC3)n2)n1` [NSSy6125] the entry was “++ (++ means 200 nM-1000 nM)”; with `COC(=O)N1CC(Oc2cc(N3CC4(CCCCC4)C3)nc(-c3nc(C)cs3)n2)C1` [NSSy6126], “+ (+ means >1 uM)”; with `COC(=O)N1CC(Oc2cc(NC3C4CC3C4)nc(-n3ccc(C)n3)n2)C1` (centres unmarked) [NSSy6127], “+ (+ means >1 uM)”.
Next, `Cc1csc(-c2nc(NC3CCC(F)(F)CC3)cc(N3CC4CCC(C3)O4)n2)n1` [NSSy6129]: “++ (++ means 200 nM-1000 nM)”; `Cc1csc(-c2nc(NC3CCCCC3)cc(N3CCS(=O)(=O)CC3)n2)n1` [NSSy6131]: “+++ (+++ means <200 nM)”; `COC(=O)N1CC(Oc2cc(NC3CCC(F)(F)CC3)nc(-c3csc(C)n3)n2)C1` [NSSy6132]: “+ (+ means >1 uM)”.
Regarding `COC(=O)N1CC(Oc2cc(NC3CCCCC3)nc(-c3csc(C)n3)n2)C1` [NSSy6133], the “SC100 (μM)” value is reported as “+ (+ means >1 uM)”.
With `Cc1nc(-c2nc(NC3CCCCC3)cc(N3CCS(=O)(=O)CC3)n2)cs1` [NSSy6134] the entry was “+ (+ means >1 uM)”; with `Cc1nsc(-c2nc(NC3CCC(F)(F)CC3)cc(N3CC4(COC4)C3)n2)n1` [NSSy6145], “+ (+ means >1 uM)”.
Next, `Cc1csc(-c2nc(NC3CCCCC3)cc(N3CCN(C4COC4)CC3)n2)n1` [NSSy6149]: “++ (++ means 200 nM-1000 nM)”; `FC1(F)CCC(Nc2cc(N3CCOCC3)nc(-c3nccs3)n2)CC1` [NSSy6152]: “+ (+ means >1 uM)”; `COC(=O)N1CC(Oc2cc(NC3CCC(F)(F)CC3)nc(-n3ccc(F)n3)n2)C1` [NSSy6162]: “++ (++ means 200 nM-1000 nM)”.
Next, `Cc1nc(-c2nc(NC3CCC(F)(F)CC3)cc(N3CCS(=O)(=O)CC3)n2)cs1` [NSSy6165]: “+ (+ means >1 uM)”; `COC(=O)N1CC(Oc2cc(NC3CCCCC3)nc(-c3nccs3)n2)C1` [NSSy6166, methyl 3-((6-(cyclohexylamino)-2-(thiazol-2-yl)pyrimidin-4-yl)oxy) azetidine-1-carboxylate]: “+ (+ means >1 uM)”; `COC(=O)N1CC(Oc2cc(NC3CCC(F)(F)CC3)nc(-c3nccs3)n2)C1` [NSSy6167]: “+ (+ means >1 uM)”.
On to `Cc1csc(-c2nc(NC3CCC(F)(F)CC3)cc(N3C[C@@H]4C[C@H]3CO4)n2)n1` [NSSy6171], for which the “SC100 (μM)” value is recorded as “++ (++ means 200 nM-1000 nM)”.
With `Cc1nsc(-c2nc(NC3CCC(F)(F)CC3)cc(N3CCN4C(=O)OCC4C3)n2)n1` (centres unmarked) [NSSy6178] the entry was “++ (++ means 200 nM-1000 nM)”; with `Cc1nsc(-c2nc(NC3CCC(F)(F)CC3)cc(N3CCN(C4COC4)CC3)n2)n1` [NSSy6201], “+ (+ means >1 uM)”; with `Cc1nsc(-c2nc(NC3CCCCC3)cc(N3CCS(=O)(=O)CC3)n2)n1` [NSSy6202, 4-(6-(cyclohexylamino)-2-(3-methyl-1,2,4-thiadiazol-5-yl)pyrimidin-4-yl)thiomorpholine 1,1-dioxide], “++ (++ means 200 nM-1000 nM)”.
Next, `Cc1nsc(-c2nc(NC3CCC(F)(F)CC3)cc(N3CCN4C(=O)OC[C@@H]4C3)n2)n1` [NSSy6251]: “++ (++ means 200 nM-1000 nM)”.
Next, `Cc1nsc(-c2nc(NC3CCC(F)(F)CC3)cc(N3CCN4C(=O)OC[C@H]4C3)n2)n1` [NSSy6252]: “++ (++ means 200 nM-1000 nM)”; `Cc1csc(-c2nc(NC3CCC(F)(F)CC3)cc(OC3CCS(=O)(=O)CC3)n2)n1` [NSSy6253]: “++ (++ means 200 nM-1000 nM)”; `CC(=O)N1CCC(Oc2cc(NC3CCC(F)(F)CC3)nc(-c3nc(C)cs3)n2)CC1` [NSSy6258]: “++ (++ means 200 nM-1000 nM)”.
As to `Cc1csc(-c2nc(CC3CCC(F)(F)CC3)cc(N3CCOCC3)n2)n1` [NSSy6263, 4-(6-((4,4-difluorocyclohexyl)methyl)-2-(4-methylthiazol-2-yl)pyrimidin-4-yl)morpholine], the “SC100 (μM)” value is reported as “+ (+ means >1 uM)”.
Take `Cc1cc(C)n(-c2nc(NC3CCCC(F)(F)C3)cc(N3CCOCC3)n2)n1` (centres unmarked) [NSSy6265]: the “SC100 (μM)” value is reported as “+ (+ means >1 uM)”.
Next, `Cc1ccn(-c2nc(NC3CCC(F)(F)CC3)cc(N(C)C3CC3)n2)n1` [NSSy6272]: “++ (++ means 200 nM-1000 nM)”; `Cc1csc(-c2cc(N3CCOCC3)cc(OC3CCC(F)(F)CC3)n2)n1` [NSSy6285]: “+ (+ means >1 uM)”; `Cc1csc(-c2cc(N(C)C3COC3)cc(NC3CCC(F)(F)CC3)n2)n1` [NSSy6288]: “++ (++ means 200 nM-1000 nM)”.
With `Cc1csc(N2C[C@@H](Nc3ccc([N+](=O)[O-])cc3)C[C@H](N3CCOCC3)C2)n1` [NSSy6342, (3S,5S)-1-(4-methylthiazol-2-yl)-5-morpholino-N-(4-nitrophenyl)piperidin-3-amine] the entry was “+ (+ means >1 uM)”.
Turning to `Fc1ccn(-c2nc(NC3CCC(F)(F)CC3)cc(N3CCOCC3)n2)n1` [NSSy6343], the “SC100 (μM)” value is “+ (+ means >1 uM)”.
Next, `Cc1csc(-c2nc(N3CCOCC3)cc(N3CC4CCCCC43)n2)n1` (centres unmarked) [NSSy6348, 4-(6-(7-azabicyclo[4.2.0]octan-7-yl)-2-(4-methylthiazol-2-yl)pyrimidin-4-yl)morpholine]: “+ (+ means >1 uM)”.
With `Cc1cc(C)n(-c2cc(CO)cc(NC3CCC(F)(F)CC3)n2)n1` [NSSy6355, (2-((4,4-difluorocyclohexyl)amino)-6-(3,5-dimethyl-1H-pyrazol-1-yl)pyridin-4-yl) methanol] the entry was “++ (++ means 200 nM-1000 nM)”; with `CC(=O)N1CCC(c2cc(NC3CCC(F)(F)CC3)nc(-n3ccc(C)n3)n2)CC1` [NSSy6369], “++ (++ means 200 nM-1000 nM)”.
Next, `Cc1ccn(-c2cc(COc3ccc(C#N)cn3)cc(NC3CCC(F)(F)CC3)n2)n1` [NSSy6371]: “+++ (+++ means <200 nM)”; `Cc1csc(-c2cc(OC3CCC(F)(F)CC3)nc(N3CCOCC3)c2)n1` [NSSy6374, 4-(6-((4,4-difluorocyclohexyl)oxy)-4-(4-methylthiazol-2-yl)pyridin-2-yl) morpholine]: “+ (+ means >1 uM)”.
Turning to `Cc1cc(C)n(-c2nc(N3CCOCC3)cc(N(O)C3CCC(F)(F)CC3)n2)n1` [NSSy6386], the “SC100 (μM)” value is “+ (+ means >1 uM)”.
Next, `Cc1cc(C)n(-c2cc(N3CCOCC3)nc(NC3CCC(F)(F)CC3)n2)n1` [NSSy6389]: “+ (+ means >1 uM)”; `Cc1csc(-c2cc(N3CCOCC3)nc(NC3CCC(F)(F)CC3)n2)n1` [NSSy6391, N-(4,4-difluorocyclohexyl)-4-(4-methylthiazol-2-yl)-6-morpholinopyrimidin-2-amine]: “+ (+ means >1 uM)”; `Cc1ccn(-c2nc(NC3CCC(F)(F)CC3)cc(N3C[C@@H]4C[C@H]3CO4)n2)n1` [NSSy6394]: “+ (+ means >1 uM)”.
Next, `Cc1ccn(-c2cc(C(O)c3ncco3)cc(NC3CCC(F)(F)CC3)n2)n1` (centres unmarked) [NSSy6395]: “++ (++ means 200 nM-1000 nM)”.
With `Cc1ccn(-c2cc([C@@H](O)c3ncco3)cc(NC3CCC(F)(F)CC3)n2)n1` [NSSy6415] the entry was “++ (++ means 200 nM-1000 nM)”; with `Cc1ccn(-c2cc([C@H](O)c3ncco3)cc(NC3CCC(F)(F)CC3)n2)n1` [NSSy6416], “++ (++ means 200 nM-1000 nM)”; with `Cc1ccn(-c2cc(COc3ccc(C#N)nn3)cc(NC3CCC(F)(F)CC3)n2)n1` [NSSy6417], “+++ (+++ means <200 nM)”.
Turning to `Cc1ccn(-c2nc(NC3CC4CCC3O4)cc(N3CCOCC3)n2)n1` (centres unmarked) [NSSy6420], the “SC100 (μM)” value is listed as “+ (+ means >1 uM)”.
Next, `OC(c1cc(NC2CCC(F)(F)CC2)nc(-n2cc(F)cn2)c1)c1ncco1` (centres unmarked) [NSSy6435]: “+ (+ means >1 uM)”.
Next, `CC(=O)N1CCC(O)(c2cc(NC3CCC(F)(F)CC3)nc(-c3nc(C)cs3)c2)CC1` [NSSy6436, 1-(4-(2-((4,4-difluorocyclohexyl)amino)-6-(4-methylthiazol-2-yl)pyridin-4-yl)-4-hydroxypiperidin-1-yl)ethan-1-one]: “+++ (+++ means <200 nM)”; `Cc1ccn(-c2nc(N[C@@H]3C[C@H]4CC[C@@H]3O4)cc(N3CCOCC3)n2)n1` [NSSy6445]: “+ (+ means >1 uM)”.
Next, `Cc1ccn(-c2nc(N[C@H]3C[C@@H]4CC[C@H]3O4)cc(N3CCOCC3)n2)n1` [NSSy6446]: “+ (+ means >1 uM)”; `Cc1ccn(-c2cc(COc3ccc(C(N)=O)nn3)cc(NC3CCC(F)(F)CC3)n2)n1` [NSSy6451]: “+++ (+++ means <200 nM)”.
As for `CC1(O)CC(Oc2cc(-n3ccc(F)n3)nc(NC3CCC(F)(F)CC3)n2)C1` (centres unmarked) [NSSy6464, 3-((2-((4,4-difluorocyclohexyl)amino)-6-(3-fluoro-1H-pyrazol-1-yl)pyrimidin-4-yl)oxy)-1-methylcyclobutan-1-ol], the “SC100 (μM)” value is “+ (+ means >1 uM)”.
Next, `Fc1ccn(-c2cc(N3CC4(COC4)C3)nc(NC3CCC(F)(F)CC3)n2)n1` [NSSy6467]: “+ (+ means >1 uM)”; `Fc1ccn(-c2cc(N3CCOCC3)nc(NC3CCC(F)(F)CC3)n2)n1` [NSSy6468]: “+ (+ means >1 uM)”.
